Source: patent US8772323B2, “Benzoxazole- and tetrahydrobenzoxazole-substituted pyridazinones as GPR119 agonists” (Boehringer Ingelheim International GmbH, priority 2010, dated 2014)
Structures can show the parent of a compound that is named as a salt.

Each molecule was assayed against human GPR119 (Homo sapiens (Human), UniProt Q8TDV5) (assay: AlphaScreen cAMP assay in Min-6/hGPR119 cells (GPR119 activation, intracellular cAMP)). Settings: MIN6 cells stably transfected with human GPR119; 45 minutes' incubation at RT; AlphaScreen cAMP Assay Kit.
Assay type: cell-based
Summary of the method: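 cAMP quantified by AlphaScreen after 45 min room-temperature compound exposure in HEPES/bicarbonate buffer, pH 7.4, containing 0.5 mM IBMX, 0.1% BSA and 1% DMSO final. Cells were Min-6 stably transfected with human GPR119, seeded 24 h beforehand.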

Sequence of human GPR119 (Q8TDV5 whole entry): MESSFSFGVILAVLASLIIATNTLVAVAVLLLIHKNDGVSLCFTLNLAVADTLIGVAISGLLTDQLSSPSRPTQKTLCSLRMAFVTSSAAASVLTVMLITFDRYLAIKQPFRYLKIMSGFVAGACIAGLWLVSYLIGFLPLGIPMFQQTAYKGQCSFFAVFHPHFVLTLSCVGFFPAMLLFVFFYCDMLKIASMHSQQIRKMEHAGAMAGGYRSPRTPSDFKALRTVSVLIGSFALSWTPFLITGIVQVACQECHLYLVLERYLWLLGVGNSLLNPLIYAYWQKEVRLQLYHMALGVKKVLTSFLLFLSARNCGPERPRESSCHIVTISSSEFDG

Row | Structure (SMILES) | EC50 [nM]
1 | O=C1NN=C(c2ccc3nc(-c4ccccc4F)oc3c2)C2CC12 (centres unmarked) [Example 20, 5-[2-(2-fluoro-phenyl)-benzoxazol-6-yl]-3,4-diaza-bicyclo[4.1.0]hept-4-en-2-one] | 157
2 | CCC1CC(=O)NN=C1c1ccc2nc(-c3ccc(OCC(=O)N4CCCCC4)cc3)oc2c1 (centres unmarked) [Example 61, 5-ethyl-6-{2-[4-(2-oxo-2-piperidin-1-yl-ethoxy)-phenyl]-benzoxazol-6-yl}-4,5-dihydro-2H-pyridazin-3-one] | 342
3 | CC(C)C1CC(=O)NN=C1c1ccc2nc(-c3ccccc3)oc2c1 (centres unmarked) [Example 32, 5-isopropyl-6-(2-phenyl-benzoxazol-6-yl)-4,5-dihydro-2H-pyridazin-3-one] | 869
4 | CCC1CC(=O)NN=C1c1ccc2nc(-c3ccc(OCCCN(C)C)cc3)oc2c1 (centres unmarked) [Example 62, 6-{2-[4-(3-dimethylamino-propoxy)-phenyl]-benzoxazol-6-yl}-5-ethyl-4,5-dihydro-2H-pyridazin-3-one] | 552
5 | CCC1CC(=O)NN=C1c1ccc2nc(-c3ccc(OCCN4CCOCC4)cc3)oc2c1 (centres unmarked) [Example 64, 5-ethyl-6-{2-[4-(2-morpholin-4-yl-ethoxy)-phenyl]-benzoxazol-6-yl}-4,5-dihydro-2H-pyridazin-3-one] | 237
6 | CCC1CC(=O)NN=C1c1ccc2nc(-c3ccc(OCC(=O)N(C)C)cc3)oc2c1 (centres unmarked) [Example 41, 2-{4-[6-(4-ethyl-6-oxo-1,4,5,6-tetrahydro-pyridazin-3-yl)-benzoxazol-2-yl]-phenoxy}-N,N-dimethyl-acetamide] | 1520
7 | CCC1CC(=O)NN=C1c1ccc2nc(-c3ccc(O)cc3)oc2c1 (centres unmarked) [Example 37, 5-ethyl-6-[2-(4-hydroxy-phenyl)-benzoxazol-6-yl]-4,5-dihydro-2H-pyridazin-3-one] | 636
8 | O=C1NN=C(c2ccc3nc(-c4ccc(CN5CCOCC5)cc4)oc3c2)C2CC12 (centres unmarked) [Example 22, 5-[2-(4-morpholin-4-ylmethyl-phenyl)-benzoxazol-6-yl]-3,4-diaza-bicyclo[4.1.0]hept-4-en-2-one] | 1750
9 | C[C@H]1CC(c2ccc3nc(-c4ccccc4)oc3c2)=NNC1=O [Example 2, (S)-4-methyl-6-(2-phenyl-benzoxazol-6-yl)-4,5-dihydro-2H-pyridazin-3-one] | 787
10 | CCC1CC(=O)NN=C1c1ccc2nc(-c3ccc(OCC4CCN(C(=O)OC(C)(C)C)CC4)cc3)oc2c1 (centres unmarked) [Example 67, tert-butyl 4-{4-[6-(4-ethyl-6-oxo-1,4,5,6-tetrahydro-pyridazin-3-yl)-benzoxazol-2-yl]-phenoxymethyl}-piperidine-1-carboxylate] | 51
11 | O=C1CCC(c2ccc3nc(-c4ccccc4)oc3c2)=NN1 [Example 16, 6-(2-phenyl-benzoxazol-6-yl)-4,5-dihydro-2H-pyridazin-3-one] | 314
12 | O=C1NN=C(c2ccc3nc(-c4ccc(F)cc4)oc3c2)C2CCC12 (centres unmarked) [Example 19, 5-[2-(4-fluoro-phenyl)-benzoxazol-6-yl]-3,4-diaza-bicyclo[4.2.0]oct-4-en-2-one] | 469
13 | CCC1CC(=O)NN=C1c1ccc2nc(-c3ccc(OCc4cccs4)cc3)oc2c1 (centres unmarked) [Example 51, 5-ethyl-6-{2-[4-(thiophen-2-ylmethoxy)-phenyl]-benzoxazol-6-yl}-4,5-dihydro-2H-pyridazin-3-one] | 158
14 | CCC1CC(=O)NN=C1c1ccc2nc(-c3ccc(OCc4ccccn4)cc3)oc2c1 (centres unmarked) [Example 47, 5-ethyl-6-{2-[4-(pyridin-2-ylmethoxy)-phenyl]-benzoxazol-6-yl}-4,5-dihydro-2H-pyridazin-3-one] | 226
15 | CCC1CC(=O)NN=C1c1ccc2nc(-c3ccc(OCCN4CCN(C)CC4)cc3)oc2c1 (centres unmarked) [Example 44, 5-ethyl-6-(2-{4-[2-(4-methyl-piperazin-1-yl)-ethoxy]-phenyl}-benzoxazol-6-yl)-4,5-dihydro-2H-pyridazin-3-one dihydrochloride] | 1090

More lines, now with the values ahead:

Row | EC50 [nM] | Structure (SMILES)
16 | 235 | CCC1CC(=O)NN=C1c1ccc2nc(-c3ccc(OCCN4[C@@H](C)CC[C@@H]4C)cc3)oc2c1 (stereo in doubt) [Example 250, 6-(2-{4-[2-((2R,5R)-trans-2,5-dimethylpyrrolidin-1-yl)-ethoxy]-phenyl}-benzoxazol-6-yl)-5-ethyl-4,5-dihydro-2H-pyridazin-3-one]
17 | 8850 | CC[C@H]1C(c2ccc3nc(-c4ccccc4)oc3c2)=NNC(=O)[C@H]1C [Example 146, (4S,5R)-5-ethyl-4-methyl-6-(2-phenyl-1,3-benzoxazol-6-yl)-2,3,4,5-tetrahydropyridazin-3-one]
18 | 1080 | CCC1CC(=O)NN=C1c1ccc2nc(-c3cccc(OCCCN4CCCCC4)c3)oc2c1 (centres unmarked) [Example 152, 5-ethyl-6-{2-[3-(3-piperidin-1-yl-propoxy)-phenyl]-benzoxazol-6-yl}-4,5-dihydro-2H-pyridazin-3-one]
19 | 2410 | CCC1CC(=O)NN=C1c1ccc2nc(-c3cccc(OCCN(C)C(C)C)c3)oc2c1 (centres unmarked) [Example 217]
20 | 9380 | Cc1cc(=O)[nH]nc1-c1ccc2nc(-c3cccs3)oc2c1 [Example 256, 5-methyl-6-(2-thiophen-2-yl-benzoxazol-6-yl)-2H-pyridazin-3-one]
21 | 415 | CC1CC(=O)NN=C1c1ccc2nc(-c3ccccc3Cl)oc2c1 (centres unmarked) [Example 89, 6-[2-(2-chloro-phenyl)-benzoxazol-6-yl]-5-methyl-4,5-dihydro-2H-pyridazin-3-one]
22 | 41 | CC[C@@H]1CC(=O)NN=C1c1ccc2nc(-c3ccc(N(C)C)cc3)oc2c1 [Example 191, (5R)-6-{2-[4-(dimethylamino)phenyl]-1,3-benzoxazol-6-yl}-5-ethyl-2,3,4,5-tetrahydropyridazin-3-one]
23 | 225 | CCC1CC(=O)NN=C1c1ccc2nc(-c3cc(C)cs3)oc2c1 (centres unmarked) [Example 97, 5-ethyl-6-[2-(4-methyl-thiophen-2-yl)-benzoxazol-6-yl]-4,5-dihydro-2H-pyridazin-3-one]
24 | 142 | CCC[C@H]1C(=O)NN=C(c2ccc3nc(-c4ccc(Cl)cc4)oc3c2)[C@@H]1C (relative stereo) [Example 185, trans-6-[2-(4-chloro-phenyl)-benzoxazol-6-yl]-5-methyl-4-propyl-4,5-dihydro-2H-pyridazin-3-one]
25 | 1560 | CCC1CC(=O)NN=C1c1ccc2nc(-c3cccc(OCCN4CCCCC4)c3)oc2c1 (centres unmarked) [Example 148, 5-ethyl-6-{2-[3-(2-piperidin-1-yl-ethoxy)-phenyl]-benzoxazol-6-yl}-4,5-dihydro-2H-pyridazin-3-one]
26 | 306 | CCC1CC(=O)NN=C1c1ccc2nc(-c3ccc(OC4CCCCCN4C)cc3)oc2c1 (centres unmarked) [Example 234, 5-ethyl-6-{2-[4-(1-methyl-2-azepan-2-yloxy)-phenyl]-benzoxazol-6-yl}-4,5-dihydro-2H-pyridazin-3-one]
27 | 621 | CCC1CC(=O)NN=C1c1ccc2nc(-c3ccc(OCCN4CCN(C(C)CC)CC4)cc3)oc2c1 (centres unmarked) [Example 166, 6-(2-{4-[2-(4-sec-butyl-piperazin-1-yl)-ethoxy]-phenyl}-benzoxazol-6-yl)-5-ethyl-4,5-dihydro-2H-pyridazin-3-one]
28 | 53 | CCC[C@@H]1C(=O)NN=C(c2ccc3nc(-c4ccc(OCCN(C(C)C)C(C)C)cc4)oc3c2)[C@H]1C (relative stereo) [Example 170, trans-6-{2-[4-(2-diisopropylamino-ethoxy)-phenyl]-benzoxazol-6-yl}-5-methyl-4-propyl-4,5-dihydro-2H-pyridazin-3-one]
29 | 209 | CC[C@@H]1C(c2ccc3nc(-c4ccccc4)oc3c2)=NNC(=O)[C@H]1C (relative stereo) [Example 145, trans-5-ethyl-4-methyl-6-(2-phenyl-benzoxazol-6-yl)-4,5-dihydro-2H-pyridazin-3-one]
30 | 578 | CC[C@@H]1OC(=O)NN=C1N1CCc2nc(-c3ccccc3)oc2C1 [Example 207, (S)-6-ethyl-5-(2-phenyl-6,7-dihydro-4H-oxazolo[5,4-c]pyridin-5-yl)-3,6-dihydro-[1.3.4]oxadiazin-2-one]
31 | 241 | C=CCOc1ccc(-c2nc3ccc(C4=NNC(=O)CC4CC)cc3o2)cc1 (centres unmarked) [Example 213, 6-[2-(4-allyloxy-phenyl)-benzoxazol-6-yl]-5-ethyl-4,5-dihydro-2H-pyridazin-3-one]
32 | 7330 | CCC1CC(c2ccc3nc(-c4cccs4)oc3c2)=NNC1=O (centres unmarked) [Example 141, 4-ethyl-6-(2-thiophen-2-yl-benzoxazol-6-yl)-4,5-dihydro-2H-pyridazin-3-one]
33 | 296 | CCC1CC(=O)NN=C1c1ccc2nc(-c3ccc(OC(C)CO)cc3)oc2c1 (centres unmarked) [Example 251, 5-ethyl-6-{2-[4-(2-hydroxy-1-methyl-ethoxy)-phenyl]-benzoxazol-6-yl}-4,5-dihydro-2H-pyridazin-3-one]
34 | 7700 | O=C1NN=C([C@H]2CCc3nc(-c4ccccc4)oc3C2)[C@H]2C[C@@H]12 [Example 131, (1R,6S)-5-((S)-2-phenyl-4,5,6,7-tetrahydro-benzoxazol-6-yl)-3,4-diaza-bicyclo[4.1.0]hept-4-en-2-one]
35 | 67 | CCC1CC(=O)NN=C1c1ccc2nc(-c3ccc(Oc4ccccc4)cc3)oc2c1 (centres unmarked) [Example 95, 5-ethyl-6-[2-(4-phenoxy-phenyl)-benzoxazol-6-yl]-4,5-dihydro-2H-pyridazin-3-one]
36 | 110 | CCC[C@H]1C(=O)NN=C(c2ccc3nc(-c4cccn4C)oc3c2)[C@@H]1C (relative stereo) [Example 252, Trans-5-methyl-6-[2-(1-methyl-1H-pyrrol-2-yl)-benzoxazol-6-yl]-4-propyl-4,5-dihydro-2H-pyridazin-3-one]
37 | 8720 | CC1CC(=O)NN=C1c1ccc2nc(-c3ccc(CN)cc3)oc2c1 (centres unmarked) [Example 124, 6-[2-(4-aminomethyl-phenyl)-benzoxazol-6-yl]-5-methyl-4,5-dihydro-2H-pyridazin-3-one]
38 | 735 | CCC1CC(=O)NN=C1c1ccc2nc(-c3cccc(OCCN4CCC(C#N)CC4)c3)oc2c1 (centres unmarked) [Example 153, 1-(2-{3-[6-(4-ethyl-6-oxo-1,4,5,6-tetrahydro-pyridazin-3-yl)-benzoxazol-2-yl]-phenoxy}-ethyl)-piperidine-4-carbonitrile]
